Measured values: patent US7737118B2, “Rotational intrathecal analgesia” (Omeros Corporation, priority 2001, dated 2010)

Columns and labels:
Assay type in all cases: in vivo
[1] = tested on: male Sprague-Dawley rats; experiment: Rat HWL study, both types of stimulation: analgesia and development of complete tolerance; conditions: drug alone, intrathecal every 12 hrs; mechanical and thermal HWL
Protocol: Experiments were performed on male Sprague-Dawley rats having a weight of 200-250 g. The rats were housed in cages with free access to food and water. Room temperature was maintained at 24±2° C. and a 12 hr light/dark cycle was maintained. All experiments were conducted according to the guidelines of the Committee on Animal Research at the University of California at San Francisco. Every effort was made to minimize animal suffering.
A polyethylene catheter (Intramedic PE 10) was permanently implanted intrathecally with the inner tip at L3 to L5 in each animal. Rats displaying movement disorders following placement of the catheter were not used in the study. […]
In the morphine only group, 8 μg morphine HCl was injected every 12 hrs until complete tolerance developed and in the nociceptin only group, 10 nmol nociceptin was injected every 12 hrs until complete tolerance developed. These doses were chosen from previous studies that determined an equianalgesic dosing for these two drugs. […]
The rats were trained with the testing conditions for five days prior to the experiments to decrease the stress response caused by handling and measurements and to obtain baseline responses. The hindpaw withdrawal latency (HWL) was measured for both thermal and mechanical stimulation. […] The HWLs were measured 15 min after the second intrathecal injection on a daily basis. […]

[2] = tested on: male Sprague-Dawley rats; experiment: Rat hindpaw withdrawal latency (HWL) to thermal stimulation (hot-plate test, 52° C.); conditions: for % Changes of HWL to Thermal Stimulation 10 Minutes After Intrathecal Injection, Left: Left hindpaw; for % Changes of HWL to Thermal Stimulation 10 Minutes After Intrathecal Injection, Right: Right hindpaw
[3] = tested on: male Sprague-Dawley rats; experiment: Rat hindpaw withdrawal latency (HWL) to mechanical stimulation (Randall Selitto Test); conditions: for % Changes of HWL to Mechanical Stimulation 10 Minutes After Intrathecal Injection, Left: Left hindpaw; for % Changes of HWL to Mechanical Stimulation 10 Minutes After Intrathecal Injection, Right: Right hindpaw
[4] = day 1, intrathecal every 12 hrs: 8 μg morphine, 10 nmol nociceptin, or rotated every two days
[5] = day 2, intrathecal every 12 hrs: 8 μg morphine, 10 nmol nociceptin, or rotated every two days
[6] = day 3, intrathecal every 12 hrs: 8 μg morphine, 10 nmol nociceptin, or rotated every two days
[7] = day 4, intrathecal every 12 hrs: 8 μg morphine, 10 nmol nociceptin, or rotated every two days
[8] = day 5, intrathecal every 12 hrs: 8 μg morphine, or morphine/nociceptin rotated every two days
[9] = day 6, intrathecal every 12 hrs: 8 μg morphine, or morphine/nociceptin rotated every two days
[10] = day 1, drug alone, intrathecal (morphine 8 μg or nociceptin 10 nmol every 12 hrs)

CN1CC[C@]23c4c5ccc(O)c4O[C@H]2[C@@H](O)C=C[C@H]3[C@H]1C5.Cl [Morphine, morphine HCl]
day by which total/complete tolerance exists [1]: 6 days
% Changes of HWL to Thermal Stimulation 10 Minutes After Intrathecal Injection, Left [2, 4]: 66.26 ± 2.20%
% Changes of HWL to Thermal Stimulation 10 Minutes After Intrathecal Injection, Left [2, 5]: 61.25 ± 3.05%
% Changes of HWL to Thermal Stimulation 10 Minutes After Intrathecal Injection, Left [2, 6]: 51.66 ± 1.73%
% Changes of HWL to Thermal Stimulation 10 Minutes After Intrathecal Injection, Left [2, 7]: 43.63 ± 1.38%
% Changes of HWL to Thermal Stimulation 10 Minutes After Intrathecal Injection, Left [2, 8]: 23.85 ± 1.03%
% Changes of HWL to Thermal Stimulation 10 Minutes After Intrathecal Injection, Left [2, 9]: −1.30 ± 2.36%
% Changes of HWL to Thermal Stimulation 10 Minutes After Intrathecal Injection, Right [2, 4]: 66.66 ± 1.51%
% Changes of HWL to Thermal Stimulation 10 Minutes After Intrathecal Injection, Right [2, 5]: 63.11 ± 0.64%
% Changes of HWL to Thermal Stimulation 10 Minutes After Intrathecal Injection, Right [2, 6]: 48.74 ± 2.40%
% Changes of HWL to Thermal Stimulation 10 Minutes After Intrathecal Injection, Right [2, 7]: 42.45 ± 1.70%
% Changes of HWL to Thermal Stimulation 10 Minutes After Intrathecal Injection, Right [2, 8]: 25.07 ± 2.07%
% Changes of HWL to Thermal Stimulation 10 Minutes After Intrathecal Injection, Right [2, 9]: 0.51 ± 1.61%
HWL increase using thermal stimulation [2, 10]: approximately 67%
% Changes of HWL to Mechanical Stimulation 10 Minutes After Intrathecal Injection, Left [3, 4]: 53.99 ± 2.96%
% Changes of HWL to Mechanical Stimulation 10 Minutes After Intrathecal Injection, Left [3, 5]: 47.69 ± 2.54%
% Changes of HWL to Mechanical Stimulation 10 Minutes After Intrathecal Injection, Left [3, 6]: 33.85 ± 1.60%
% Changes of HWL to Mechanical Stimulation 10 Minutes After Intrathecal Injection, Left [3, 7]: 31.37 ± 2.02%
% Changes of HWL to Mechanical Stimulation 10 Minutes After Intrathecal Injection, Left [3, 8]: 15.30 ± 1.39%
% Changes of HWL to Mechanical Stimulation 10 Minutes After Intrathecal Injection, Left [3, 9]: 3.26 ± 1.86%
% Changes of HWL to Mechanical Stimulation 10 Minutes After Intrathecal Injection, Right [3, 4]: 56.04 ± 3.38%
% Changes of HWL to Mechanical Stimulation 10 Minutes After Intrathecal Injection, Right [3, 5]: 46.74 ± 2.52%
% Changes of HWL to Mechanical Stimulation 10 Minutes After Intrathecal Injection, Right [3, 6]: 33.44 ± 1.03%
% Changes of HWL to Mechanical Stimulation 10 Minutes After Intrathecal Injection, Right [3, 7]: 28.84 ± 2.73%
% Changes of HWL to Mechanical Stimulation 10 Minutes After Intrathecal Injection, Right [3, 8]: 16.54 ± 1.26%
% Changes of HWL to Mechanical Stimulation 10 Minutes After Intrathecal Injection, Right [3, 9]: 2.72 ± 1.94%
HWL increase using mechanical stimulation [3, 10]: ~55%
